What was measured:
Type in all cases: cell-based, human
[1] = system: Xkr8 mRNA in PLB-985 cells; experiment: Real-time RT-PCR of Xkr8 mRNA in DAC-treated PLB-985 cells
Protocol: To treat human PLB-985 cells with 5-aza-2′-deoxycytidine (DAC, Sigma-Aldrich), 1.0×10^6 cells in 10 ml of RPMI containing 10% FCS were incubated with 0.5 μM DAC for up to 7 days. Since DAC is an unstable compound, the medium containing DAC was changed every 24 hours. After DAC treatment, the cells were divided into three portions: one portion for FACS to analyze the PtdSer exposure, one for real-time RT-PCR for Xkr8 gene expression, and one for the methylation-specific PCR analysis^67. For the bisulfite genomic sequencing, the DNA was modified with bisulfite using a kit (MethyEasy Xceed, Human Genetic Signatures). In brief, 3 μg DNA was denatured by incubation at 37° C. for 15 min in 0.3 M NaOH, and treated with sodium bisulfite according to the protocol provided by the supplier except that the incubation time was changed to 90 min. The modified DNA was denatured at 95° C. for 20 min, and amplified by PCR using primers specific for the treated DNA ([…] (SEQ ID NO; 20) and […] (SEQ ID NO; 21)). PCR was carried out with EpiTaq HS polymerase (Takara Bio) for 7-40 cycles, and the product was cloned in a pGEM-Teasy vector for sequencing. […]
The specific mRNA was quantified at the point where the LightCycler System detected the upstroke of the exponential phase of PCR accumulation with the respective linearized plasmid DNA as reference.

[2] = system: CpG sites of the hXkr8 gene promoter in PLB-985 cells; experiment: Bisulfite genomic sequencing of CpG sites between -239 and +7 of the hXkr8 gene; conditions: 0.5 μM DAC, day 7
Protocol: To treat human PLB-985 cells with 5-aza-2′-deoxycytidine (DAC, Sigma-Aldrich), 1.0×10^6 cells in 10 ml of RPMI containing 10% FCS were incubated with 0.5 μM DAC for up to 7 days. Since DAC is an unstable compound, the medium containing DAC was changed every 24 hours. After DAC treatment, the cells were divided into three portions: one portion for FACS to analyze the PtdSer exposure, one for real-time RT-PCR for Xkr8 gene expression, and one for the methylation-specific PCR analysis^67. For the bisulfite genomic sequencing, the DNA was modified with bisulfite using a kit (MethyEasy Xceed, Human Genetic Signatures). In brief, 3 μg DNA was denatured by incubation at 37° C. for 15 min in 0.3 M NaOH, and treated with sodium bisulfite according to the protocol provided by the supplier except that the incubation time was changed to 90 min. The modified DNA was denatured at 95° C. for 20 min, and amplified by PCR using primers specific for the treated DNA ([…] (SEQ ID NO; 20) and […] (SEQ ID NO; 21)). PCR was carried out with EpiTaq HS polymerase (Takara Bio) for 7-40 cycles, and the product was cloned in a pGEM-Teasy vector for sequencing.

[3] = system: PLB-985 cells; experiment: PtdSer exposure (Cy5-Annexin V staining) of DAC-treated PLB-985 cells after UV irradiation; conditions: PLB-985 cells treated with DAC for five days, Cy5-Annexin V and PI
Protocol: Apoptosis was induced by treating cells with FasL or staurosporine, or exposing them to UV. In brief, 5×10^5 cells in 500 μl of culture medium were incubated at 37° C. with 10-400 units/ml hFasL for 1.2-2.0 h or with 10 μM staurosporine for 1.5-4.0 h. For UV exposure, 1×10^6 cells in 2 ml of PBS were exposed to 500-2000 J/m UV radiation (254 nm) in a StrataLinker UV oven (Stratagene), and incubated at 37° C. for 1.5-2.0 h in 4 ml of RPMI1640 containing 10% FCS. To monitor Ca^2÷-ionophore-induced PtdSer exposure, cells (5×10^5 cells) in 500 μl of Annexin V staining buffer (10 mM Hepes-NaOH buffer [pH7.4] containing 140 mM NaCl and 2.5 mM CaCl2) were incubated at 20° C. for 3 min, treated with 3.0-10 μM A23187, and analyzed with FACSAria at 20° C.
To detect PtdSer and PtdEtn exposed on the cell surface, cells were stained on ice for 15 min with 2500-5000-fold diluted Cy5-Annexin V (Biovision) or 800-fold diluted-biotin-Ro09-0198^66 followed by 1.0 μg/ml APC-streptavidin in Annexin V staining buffer in the presence of 5 μg/ml propidium iodide (PI), and analyzed by FACSAria or FACSCalibur (BD Biosciences). […] Aliquots (150 μl) were mixed with 150 μl HBSS containing 5 μg/ml fatty-acid free BSA (Sigma-Aldrich) and 500 nM Sytoxblue (Molecular Probes), and analyzed by FACSAria. […]

**Q.** What does the source list for `Nc1ncn([C@H]2C[C@H](O)[C@@H](CO)O2)c(=O)n1` [DAC, 5-aza-2′-deoxycytidine]?
**A.** Change of Xkr8 mRNA level ([1]; 0.5 μM DAC for up to 7 days): gradually increased; Xkr8 mRNA level relative to that in Namalwa cells ([1]; 0.5 μM DAC, day 7): about 91%; Methylation status of the 23 CpG sites between -239 and +7 [2]: highly demethylated; PtdSer exposure in response to UV irradiation [3]: gained the ability to expose PtdSer
